Literature values in patent US20230098686A1, “NERVE SPECIFIC FLUOROPHORE FORMULATIONS FOR DIRECT AND SYSTEMIC ADMINISTRATION” (OREGON HEALTH & SCIENCE UNIVERSITY, priority 2020, published 2023).

Tested on: nerve tissue
Details: previous studies

CC/N=c1/cc2oc3cc(NCC)c(C)cc3nc-2cc1C [Oxazine 4]
nerve specificity: high nerve-specificity
